Like-named read-outs stand apart in the source and are kept apart here.
How the values were obtained:
[1] = biological target: T1, NOP (Homo sapiens, UniProt P41146); assay: cAMP biosensor assay, NOP antagonist mode; type: cell-based
[2] = biological target: T2, MOP (Homo sapiens, UniProt P35372); assay: cAMP biosensor assay, MOP agonist mode; type: cell-based
[3] = biological target: T2, MOP; assay: cAMP biosensor assay, MOP antagonist mode; type: cell-based
[4] = biological target: T1, NOP; assay: cAMP biosensor assay, NOP agonist mode; type: cell-based
[5] = blood-brain barrier penetration; conditions: in vivo
[6] = test system: selected cytochrome P450 enzymes; assay: affinity for selected cytochrome P450 enzymes
[7] = HEK293-CNG cells expressing NOP, antagonist mode with 5 nM nociceptin, read-out: NOP Antagonist IC50
[8] = HEK293-CNG cells expressing NOP, agonist mode, 11 point concentration-response, read-out: NOP Agonist EC50

T2 sequence (P35372 whole entry): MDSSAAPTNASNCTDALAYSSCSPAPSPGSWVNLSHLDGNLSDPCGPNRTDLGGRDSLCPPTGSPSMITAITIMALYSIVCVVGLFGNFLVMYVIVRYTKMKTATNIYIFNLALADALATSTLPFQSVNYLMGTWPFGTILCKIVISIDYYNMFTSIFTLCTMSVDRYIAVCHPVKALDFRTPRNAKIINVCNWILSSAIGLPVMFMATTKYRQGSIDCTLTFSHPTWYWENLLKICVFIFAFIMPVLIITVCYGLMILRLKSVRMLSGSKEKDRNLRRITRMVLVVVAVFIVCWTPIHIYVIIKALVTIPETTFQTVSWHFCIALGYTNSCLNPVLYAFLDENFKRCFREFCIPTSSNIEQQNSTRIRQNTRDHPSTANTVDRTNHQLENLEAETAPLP
T1 sequence (P41146 whole entry): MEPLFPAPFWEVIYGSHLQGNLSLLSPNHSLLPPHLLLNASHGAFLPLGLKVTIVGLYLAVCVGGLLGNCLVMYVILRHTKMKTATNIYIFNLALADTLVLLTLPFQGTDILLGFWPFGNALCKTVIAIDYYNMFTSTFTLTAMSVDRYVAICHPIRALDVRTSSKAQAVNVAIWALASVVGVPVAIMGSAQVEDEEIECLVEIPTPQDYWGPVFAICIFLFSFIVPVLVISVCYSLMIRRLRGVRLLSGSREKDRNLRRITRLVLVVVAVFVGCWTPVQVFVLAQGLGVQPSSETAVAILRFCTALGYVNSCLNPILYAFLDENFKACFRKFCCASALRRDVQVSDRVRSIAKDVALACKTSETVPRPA

| SMILES | IC50 [1, 7] [µM] | EC50 [2] [µM] | IC50 [3] [µM] | EC50 [4, 8] [µM] | blood-brain barrier penetration [5] [%] | affinity for selected cytochrome P450 enzymes [6] | IC50 [1] [µM] | EC50 [4] [µM] |
| --- | --- | --- | --- | --- | --- | --- | --- | --- |
| c1ccc2c(c1)nc(C1CCNCC1)n2C1CCN(CC2CCCCCCC2)CC1 [Cpd 10] | > 10 | 0.4 | > 10 | 3.5 |  |  |  |  |
| c1ccc2c(c1)nc([C@@H]1CCNC1)n2C1CCN(CC2CCCCCCC2)CC1 [Cpd 11] |  |  |  |  | 44 | low affinity |  |  |
| O[C@H]1CN[C@H](c2nc3ccccc3n2C2CCN(CC3CCCCCCC3)CC2)C1 [Cpd 18] |  | 0.57 |  |  |  |  | 7.8 | 1.4 |
| Fc1ccc2c(c1)nc([C@@H]1CCCNC1)n2C1CCN(CC2CCCCCCC2)CC1 [Cpd 30] | 3.9 | 0.23 | 3 | 0.15 |  |  |  |  |
| Cc1ccc2c(c1)nc([C@@H]1CCNC1)n2C1CCN(CC2CCCCCCC2)CC1 [Cpd 41] | > 10 | 5.9 | > 100 | 6.3 |  |  |  |  |
| CS(=O)(=O)c1ccc2c(c1)nc([C@@H]1CCNC1)n2C1CCN(CC2CCCCCCC2)CC1 [Cpd 44] | > 10 |  | > 10 | 3.3 |  |  |  |  |
| C1=CC2CC1CC2CN1CCC(n2c(C3CNC3)nc3ccccc32)CC1 (stereo not shown) [Cpd 47] | > 10 | 0.3 | > 10 | 0.31 |  |  |  |  |
| CC1=C(CN2CCC(n3c(C4CNC4)nc4cc(F)ccc43)CC2)C(C)(C)CCC1 [Cpd 53] | > 10 |  | > 10 | 0.21 |  |  |  |  |
| c1ccc2c(c1)nc(C1CNC1)n2C1CCN(CC2CCCCC2)CC1 [Cpd 55] | > 10 |  | > 10 | 0.14 |  |  |  |  |
| CC1(C)[C@H]2CC=C(CN3CCC(n4c([C@@H]5CCCNC5)nc5ccccc54)CC3)[C@@H]1C2 [Cpd 58] | > 10 |  | > 10 | 1.6 |  |  |  |  |
| c1ccc(CN2CCC(n3c([C@@H]4CCNC4)nc4ccccc43)CC2)cc1 [Cpd 59] | > 10 | 0.27 | > 10 | 0.37 |  |  |  |  |
